Laboratory results taken from ChEMBL document CHEMBL1130824, “The novel cyclopropapyrroloindole(CPI) bisalkylators bearing methoxycarbonyl and trifluoromethyl groups” (Bioorg Med Chem Lett, 1998).
In brackets after ≈: the same amount, converted by molar mass.

Assays:
[1] = system: Colon 26; assay: Compound was tested for antitumor activity against colon 26 murine adenocarcinoma infected CDF1 mice when administered at a dose of 0.977 ug/Kg intravenously; assay type: functional; details: Mus musculus, Colon 26, iv; read-out: TGI
[2] = system: HeLa; assay: Concentration required to inhibit the growth of HeLaS3 cells; assay type: functional, cell-based, Homo sapiens
[3] = system: Colon 26; assay: Compound was tested for antitumor activity against colon 26 murine adenocarcinoma infected CDF1 mice when administered at a dose of 15.6 ug/Kg intravenously; assay type: functional; details: Mus musculus, Colon 26, iv; read-out: TGI
[4] = system: Colon 26; assay: Compound was tested for antitumor activity against colon 26 murine adenocarcinoma infected CDF1 mice when administered at a dose of 31.3 ug/Kg intravenously; assay type: functional; details: Mus musculus, Colon 26, iv; read-out: TGI
[5] = system: Colon 26; assay: Compound was tested for antitumor activity against colon 26 murine adenocarcinoma infected CDF1 mice when administered at a dose of 4000 ug/Kg intravenously; assay type: functional; details: Mus musculus, Colon 26, iv; read-out: TGI
[6] = Homo sapiens, HeLa, read-out: IC50

For COC(=O)c1c(C(F)(F)F)[nH]c2c(O)cc3c(c12)[C@H](CCl)CN3C(=O)c1cc2cc(-c3ccc4[nH]c(C(=O)N5C[C@@H](CCl)c6c5cc(O)c5[nH]c(C(F)(F)F)c(C(=O)OC)c65)cc4c3)ccc2[nH]1, the inhibition in vivo at 0.000977 mg/kg [1] was 84% and the IC50 ([2]; hela) was 0.0049 ng/mL (≈ 0.00499 nM).
COC(=O)c1c(C(F)(F)F)[nH]c2c(O)cc3c(c12)[C@H](CCl)CN3C(=O)c1cc2cc(NC(=O)Nc3ccc4[nH]c(C(=O)N5C[C@@H](CCl)c6c5cc(O)c5[nH]c(C(F)(F)F)c(C(=O)OC)c65)cc4c3)ccc2[nH]1 was tested, and the inhibition in vivo at 0.0156 mg/kg [3] was 94% and the IC50 [2, 6] was 0.091 ng/mL (≈ 0.0875 nM).
In the case of COC(=O)c1c(C(F)(F)F)[nH]c2c(O)cc3c(c12)[C@H](CCl)CN3C(=O)c1cc2cc(CCc3ccc4[nH]c(C(=O)N5C[C@@H](CCl)c6c5cc(O)c5[nH]c(C(F)(F)F)c(C(=O)OC)c65)cc4c3)ccc2[nH]1, the IC50 [2, 6] is reported as 0.21 ng/mL (≈ 0.208 nM) and the inhibition in vivo at 0.0313 mg/kg [4] is reported as 87%.
COC(=O)c1c(C(F)(F)F)[nH]c2c(O)cc3c(c12)[C@H](CCl)CN3C(=O)c1cc2cc(C#Cc3ccc4[nH]c(C(=O)N5C[C@@H](CCl)c6c5cc(O)c5[nH]c(C(F)(F)F)c(C(=O)OC)c65)cc4c3)ccc2[nH]1 gave an IC50 [2, 6] of 0.35 ng/mL (≈ 0.348 nM) and an inhibition in vivo at 0.0313 mg/kg [4] of 82%.
COC(=O)c1c(C(F)(F)F)[nH]c2c(O)cc3c(c12)[C@H](CCl)CN3C(=O)c1cc2cc(Cc3ccc4[nH]c(C(=O)N5C[C@@H](CCl)c6c5cc(O)c5[nH]c(C(F)(F)F)c(C(=O)OC)c65)cc4c3)ccc2[nH]1 showed an inhibition in vivo at 4 mg/kg [5] of 80% and an IC50 [2, 6] of 33 ng/mL (≈ 33.1 nM).
Compound COC(=O)c1c(C(F)(F)F)[nH]c2c(O)cc3c(c12)[C@H](CCl)CN3C(=O)c1cc2cc(Oc3ccc4[nH]c(C(=O)N5C[C@@H](CCl)c6c5cc(O)c5[nH]c(C(F)(F)F)c(C(=O)OC)c65)cc4c3)ccc2[nH]1 has an inhibition in vivo at 4 mg/kg [5] of 88% and an IC50 [2, 6] of 22 ng/mL (≈ 22.1 nM).
Cc1c[nH]c2c(O)cc3c(c12)[C@H](CCl)CN3C(=O)c1cc2cc(NC(=O)Nc3ccc4[nH]c(C(=O)N5C[C@@H](CCl)c6c5cc(O)c5[nH]cc(C)c65)cc4c3)ccc2[nH]1 [BIZELESIN] showed an inhibition in vivo at 0.0156 mg/kg [3] of 90% and an IC50 [2, 6] of 0.06 ng/mL (≈ 0.0736 nM).
